Data from US20240174690A1, “ANNULATED 2-AMINO-3-CYANO THIOPHENES AND DERIVATIVES FOR THE TREATMENT OF CANCER” (BOEHRINGER INGELHEIM INTERNATIONAL GMBH, priority 2021, published 2024).
pIC50: −log10 of the molar value. Read-outs that look alike come from different tables or passages of the source.

How the values were obtained:
[1] = Caco-2 assay (permeability PappAB, PappBA, efflux ratio); format: in vitro ADME; settings: human, Caco-2, 10 μM test compound, pH 7.4; for Papp A→B at 90 min, 10 μM: apical to basolateral; for efflux ratio at 90 min, 10 μM: efflux ratio PappBA/PappAB, read-out: Caco ER
How it was run: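 Bidirectional permeability (apical-to-basolateral and reverse) through polarized Caco-2 monolayers, BSA 0.25% on each side, 37 °C. Donor and receiver sampled at 0-90 min after 25-30 min preincubation, analysed by HPLC/MS/MS. Apparent permeabilities derived from transfer rate normalised to area and t=0 donor concentration; ER taken as PappBA over PappAB.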

[2] = system: NCI-H358 cells; experiment: NCI-H358 CTG proliferation assay (120 h) (NSCLC, G12C); format: cell-based, human; settings: Homo sapiens
How it was run: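 IC50 values derive from four-parameter nonlinear regression of CellTiter-Glo viability (RLU relative to DMSO wells) after 120 h of exposure. Cells were plated in RPMI-1640 + 10% FCS at 2000 per well (assay 1) or 200 per well (assay 2). Untreated cells were measured at compound addition as T0.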

[3] = system: SAS cells; experiment: SAS CTG proliferation assay (120 h) (HNSCC, wt amplified); format: cell-based
How it was run: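 Viability measured by CellTiter-Glo luminescence, normalized to DMSO wells, after 120 h compound treatment of SAS cells. Cells grown in DMEM:F12 plus 10% FCS at 300 cells per well, dosed the day after seeding. Four-parameter fit gives IC50.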

[4] = assay 2, CTG, read-out: H358 (assay 2) IC50
[5] = assay 1, CTG, read-out: H358 (assay 1) IC50

Work on C[C@H](Oc1cc(N2CCNC3(CCC3)C2)nc(-c2onc3c2CCC[C@@]32CCCc3sc(N)c(C#N)c32)n1)[C@@H]1CCCN1C [I-3] yielded a Papp A→B at 90 min, 10 μM [1] of 1.2 ×10⁻⁶ cm/s, an efflux ratio at 90 min, 10 μM [1] of 20.8 and a pIC50 [2, 4] of 5.88. The pIC50 [3] was 5.31.
With C[C@H](Oc1cc(N2CCNC3(COC3)C2)nc(-c2onc3c2CCC[C@@]32CCCc3sc(N)c(C#N)c32)n1)[C@@H]1CCCN1C [I-4] the Papp A→B at 90 min, 10 μM [1] was less than 4.8 ×10⁻⁶ cm/s, the pIC50 [2, 4] was 6.13 and the pIC50 [3] was 6.40.
Work on C[C@H](Oc1cc(-n2ccnc2)nc(-c2onc3c2CCC[C@@]32CCCc3sc(N)c(C#N)c32)n1)[C@@H]1CCCN1C [I-20] yielded a Papp A→B at 90 min, 10 μM [1] of 4.3 ×10⁻⁶ cm/s, an efflux ratio at 90 min, 10 μM [1] of 4.9 and a pIC50 [2, 4] of 6.54. The pIC50 [3] was 7.46.
Work on C[C@H](Oc1cc([C@@H]2CCOC2)nc(-c2onc3c2CCC[C@@]32CCCc3sc(N)c(C#N)c32)n1)[C@@H]1CCCN1C [I-22] yielded a Papp A→B at 90 min, 10 μM [1] of 18 ×10⁻⁶ cm/s, an efflux ratio at 90 min, 10 μM [1] of 1.9 and a pIC50 [2, 5] of 7.51. For the same compound, the pIC50 [2, 4] was 8.00 and the pIC50 [3] was 7.48.
CO[C@@H]1C[C@@H]([C@H](C)Oc2cc(-c3ccn(C)n3)nc(-c3onc4c3CCC[C@@]43CCCc4sc(N)c(C#N)c43)n2)N(C)C1 [I-23] gave a Papp A→B at 90 min, 10 μM [1] of 9.2 ×10⁻⁶ cm/s, an efflux ratio at 90 min, 10 μM [1] of 1.5 and a pIC50 [2, 5] of 9.00. It also gave a pIC50 [3] of 7.62.
Work on C[C@H](Oc1cc(-c2ccn(CC(C)(C)O)n2)nc(-c2onc3c2CCC[C@@]32CCCc3sc(N)c(C#N)c32)n1)[C@@H]1CCCN1C [I-26] yielded a Papp A→B at 90 min, 10 μM [1] of 3 ×10⁻⁶ cm/s, an efflux ratio at 90 min, 10 μM [1] of 10.7 and a pIC50 [2, 4] of 6.85. For the same compound, the pIC50 [3] was 7.05.
C[C@H](Oc1cc(-c2cnsc2)nc(-c2onc3c2CCC[C@@]32CCCc3sc(N)c(C#N)c32)n1)[C@@H]1CCCN1C [I-27] gave an efflux ratio at 90 min, 10 μM [1] of 1.1, a pIC50 [2, 4] of 6.92 and a pIC50 [3] of 6.96.
For C[C@H](Oc1cc(-c2ccn(C[C@@H](C)O)n2)nc(-c2onc3c2CCC[C@@]32CCCc3sc(N)c(C#N)c32)n1)[C@@H]1CCCN1C [I-30], the Papp A→B at 90 min, 10 μM [1] was 2 ×10⁻⁶ cm/s, the efflux ratio at 90 min, 10 μM [1] was 18.5 and the pIC50 [2, 4] was 6.69. The pIC50 [3] was 7.30.
C[C@H](O)Cn1ccc(-c2cc(O[C@@H](C)[C@@H]3CCCN3C)nc(-c3onc4c3CCC[C@@]43CCCc4sc(N)c(C#N)c43)n2)n1 [I-31] showed a Papp A→B at 90 min, 10 μM [1] of 2.3 ×10⁻⁶ cm/s, an efflux ratio at 90 min, 10 μM [1] of 13.9 and a pIC50 [2, 4] of 6.58. It also gave a pIC50 [3] of 7.24.
Compound C[C@H](Oc1cc(-c2ccn(C3COC3)n2)nc(-c2onc3c2CCC[C@@]32CCCc3sc(N)c(C#N)c32)n1)[C@@H]1CCCN1C [I-34] has a Papp A→B at 90 min, 10 μM [1] of 3.6 ×10⁻⁶ cm/s, an efflux ratio at 90 min, 10 μM [1] of 9.2 and a pIC50 [2, 4] of 7.12. The pIC50 [3] was 6.73.
With C[C@H](Oc1cc(N2CCN(C)C3(COC3)C2)nc(-c2onc3c2CCC[C@@]32CCCc3sc(N)c(C#N)c32)n1)[C@@H]1C[C@@H](F)CN1C [I-37] the Papp A→B at 90 min, 10 μM [1] was 12 ×10⁻⁶ cm/s, the efflux ratio at 90 min, 10 μM [1] was 2 and the pIC50 [2, 4] was 5.41. For the same compound, the pIC50 [3] was 6.39.
With C[C@H](Oc1cc(N2CCN(C)C3(CC3)C2)nc(-c2onc3c2CCC[C@@]32CCCc3sc(N)c(C#N)c32)n1)[C@@H]1C[C@@H](F)CN1C [I-39] the efflux ratio at 90 min, 10 μM [1] was 0.6, the pIC50 [2, 4] was 5.84 and the pIC50 [3] was 5.92.
C[C@H](Oc1cc(N2CCNC3(CC3)C2)nc(-c2onc3c2CCC[C@@]32CCCc3sc(N)c(C#N)c32)n1)[C@@H]1C[C@@H](F)CN1C [I-45] showed a Papp A→B at 90 min, 10 μM [1] of 11 ×10⁻⁶ cm/s, an efflux ratio at 90 min, 10 μM [1] of 3.1 and a pIC50 [2, 4] of 6.33. The pIC50 [3] was 5.92.
Work on CO[C@H]1CCN(C)[C@@H]1[C@H](C)Oc1cc(N2CCNC3(CC3)C2)nc(-c2onc3c2CCC[C@@]32CCCc3sc(N)c(C#N)c32)n1 [I-49] yielded a Papp A→B at 90 min, 10 μM [1] of 10 ×10⁻⁶ cm/s, an efflux ratio at 90 min, 10 μM [1] of 2.9 and a pIC50 [2, 4] of 6.84. It also gave a pIC50 [3] of 6.04.
Compound CO[C@@H]1C[C@@H]([C@H](C)Oc2cc(N3CCN(C)C4(CC4)C3)nc(-c3onc4c3CCC[C@@]43CCCc4sc(N)c(C#N)c43)n2)N(C)C1 [I-50] has an efflux ratio at 90 min, 10 μM [1] of 1.7, a pIC50 [2, 4] of 6.13 and a pIC50 [3] of 5.54.
C[C@H](Oc1cc(-n2ccc(C(=O)N[C@@H]3CCOC3)n2)nc(-c2onc3c2CCC[C@@]32CCCc3sc(N)c(C#N)c32)n1)[C@@H]1CCCN1C [I-56] showed an efflux ratio at 90 min, 10 μM [1] of 10.4, a pIC50 [2, 4] of 8.70 and a pIC50 [3] of 7.60.
